Data: patent publication US20050164976A1, “Combination of a cdk inhibitor and 5-fu for the tratment of cancer” (Cyclacel Limited, priority 2002, published 2005)

Tests used:
MCF7 cells = assay: cells; conditions: Homo sapiens
Protocol: MCF7 cells were seeded at 3,000/well in 96 well plates. Cell were allowed to settle overnight, and medium replaced with drug-containing medium the next day. Nine different drug treatments were tested, in triplicate, in each plate.

HT29 cells [1] = assay: cells; conditions: Homo sapiens, HT-29
Source text: Cells were washed in media to inactivate trypsin before reseeding or analysis.

HT29 cells [2] = assay: activated caspase-3 assay; format: cell-based, human; conditions: single agent, dose dependent
HT29 cells [3] = conditions: single agent; 40 μM roscovitine; 1 μM 5-FU
Protocol: HT29 cells were seeded and treated with drug in the same way as for the determination of cell cycle distribution. After 24 hours, media was replaced with that containing 10 μM BrdU and incubated for 30 minutes. Detached cells were harvested, plates were washed twice in PBS and adherent cells harvested by trypsinisation. Adherent and detached cells were pooled, washed in PBS, fixed in ice cold 70% v/v ethanol and stored at 4° C. Cells were washed twice in PBS+1% BSA and treated with 2M HCl for 20 minutes, followed by a further three washes in PBS. Cells were pelleted and 2 μl of anti-BrdU antibody (Pharmingen) added to the pellet. […] After incubation at room temperature protected from light for 20 minutes, samples were analysed by flow cytometry.
A Becton Dickinson LSR flow cytometer was used for these studies, in accordance with the manufacturers recommendations. […] Where used, activated caspase-3 and BrdU positive cells were designated as such on the basis of green fluorescence (530±28 nm), acquired on a logarithmic scale. Red fluorescence (575±26 nm) was acquired on a linear scale and pulse width analysis was used to exclude cell doublets and aggregates from the analysis. Cells with a DNA content of between 2n and 4n were designated as being in G1, S or G2/M phases of the cell cycle, as defined by the level of red fluorescence. […]

HT29 cells [4] = assay: analysis of cell cycle distribution by flow cytometry; format: cell-based, human; conditions: single agent, 48 hours; roscovitine 20 μM and 40 μM; 5-FU 0.5 μM and 1 μM; dose dependent
[5] = test system: human mammary cancer xenograft MAXF 857; conditions: 5FU alone at the concentrations used in the combination
Protocol: Cells were passed through sieves of 200 μm and 50 μm mesh size and washed twice with sterile PBS-buffer (Life Technologies). The percentage of viable cells was determined in a Neubauer-hemocytometer using trypan blue exclusion.
The clonogenic assay was performed in a 24-well format according to a modified two-layer soft agar assay introduced by Hamburger et al [Hamburger, A. W. & S. E. Salmon. […] The bottom layer consisted of 0.2 ml/well of Iscove's Modified Dulbecco's Medium (supplemented with 20% (v/v) fetal calf serum and 0.01% (v/v) gentamicin) and 0.75% (w/v) agar. 5·10^4 cells were added to 0.2 ml of the same culture medium supplemented with 0.4% (w/v) agar and plated in 24-multiwell dishes onto the bottom layer. Cytostatic drugs were applied by continuous exposure (drug overlay) in 0.2 ml culture medium 24 hours after seeding in the cells. Every dish included six control wells and drug-treated groups in triplicate at 6 concentrations. […] Cultures were incubated at 37° C. and 7.5% CO2 in a humidified atmosphere for 8-20 days and monitored closely for colony growth using an inverted microscope. Within this period, in vitro tumor growth led to the formation of colonies with a diameter of >50 μm. At the time of maximum colony formation, counts were performed with an automatic image analysis system (OMNICON FAS IV, Biosys GmbH). […]

## O=c1[nH]cc(F)c(=O)[nH]1 [5-FU, 5-Fluorouracil]
MCF7 cells
  IC50: 8 µM
HT29 cells [1]
  IC50: 1 µM
HT29 cells [2]
  activation of caspase-3: albeit to a lesser extent
HT29 cells [3]
  number of cells incorporating BrdU: 64.3%
HT29 cells [4]
  effect on cell cycle distribution: accumulation of cells in S phase
[5]
  effect on cell growth: no effect on cell growth

## CC[C@H](CO)Nc1nc(NCc2ccccc2)c2ncn(C(C)C)c2n1 [roscovitine, 6-benzylamino-2-[(R)-1-ethyl-2-hydroxyethylamino]-9-isopropylpurine]
HT29 cells [2]
  activation of caspase-3: induces activation of caspase-3
HT29 cells [3]
  number of cells incorporating BrdU: 3.8%
HT29 cells [4]
  effect on cell cycle distribution: accumulation of cells in G2/M
